What was measured:
Test in all cases: Kinase profiling in a biochemical assay panel (mobility shift assays and ELISA), %-inhibition at 1 μM; selectivity entropy
[1] = molecular target: panel of more than 300 wild-type and mutant kinases (313 kinase panel) (Homo sapiens, UniProt P22607, K650E); conditions: kinase FGFR3(K650E); compound at 1 μM
[2] = molecular target: panel of more than 300 wild-type and mutant kinases (313 kinase panel) (Homo sapiens, UniProt P08581, Y1235D); conditions: kinase MET(Y1235D); compound at 1 μM
[3] = molecular target: T1, panel of more than 300 wild-type and mutant kinases (313 kinase panel) (Homo sapiens, UniProt Q9H093); conditions: kinase NuaK2; 1 μM
T1 sequence (Q9H093 1-628): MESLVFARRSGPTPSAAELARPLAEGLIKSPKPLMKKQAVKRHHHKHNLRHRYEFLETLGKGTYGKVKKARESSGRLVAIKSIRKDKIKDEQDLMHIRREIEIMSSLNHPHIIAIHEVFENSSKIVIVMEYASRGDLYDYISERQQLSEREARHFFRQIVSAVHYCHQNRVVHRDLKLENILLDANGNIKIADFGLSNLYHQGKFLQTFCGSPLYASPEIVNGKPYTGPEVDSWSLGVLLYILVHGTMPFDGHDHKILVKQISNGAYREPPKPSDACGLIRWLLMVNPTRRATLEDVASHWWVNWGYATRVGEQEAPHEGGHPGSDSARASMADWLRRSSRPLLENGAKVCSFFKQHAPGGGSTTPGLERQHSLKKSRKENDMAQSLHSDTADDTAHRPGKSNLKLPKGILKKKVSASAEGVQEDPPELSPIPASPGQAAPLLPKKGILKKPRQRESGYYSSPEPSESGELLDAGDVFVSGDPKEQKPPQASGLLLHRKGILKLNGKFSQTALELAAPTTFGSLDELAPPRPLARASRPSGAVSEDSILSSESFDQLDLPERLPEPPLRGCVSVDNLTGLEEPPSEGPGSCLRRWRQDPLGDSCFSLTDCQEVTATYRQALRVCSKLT

[4] = molecular target: T2, panel of more than 300 wild-type and mutant kinases (313 kinase panel) (Homo sapiens, UniProt P15735); conditions: kinase PHKG2; 1 μM
T2 sequence (P15735 1-406): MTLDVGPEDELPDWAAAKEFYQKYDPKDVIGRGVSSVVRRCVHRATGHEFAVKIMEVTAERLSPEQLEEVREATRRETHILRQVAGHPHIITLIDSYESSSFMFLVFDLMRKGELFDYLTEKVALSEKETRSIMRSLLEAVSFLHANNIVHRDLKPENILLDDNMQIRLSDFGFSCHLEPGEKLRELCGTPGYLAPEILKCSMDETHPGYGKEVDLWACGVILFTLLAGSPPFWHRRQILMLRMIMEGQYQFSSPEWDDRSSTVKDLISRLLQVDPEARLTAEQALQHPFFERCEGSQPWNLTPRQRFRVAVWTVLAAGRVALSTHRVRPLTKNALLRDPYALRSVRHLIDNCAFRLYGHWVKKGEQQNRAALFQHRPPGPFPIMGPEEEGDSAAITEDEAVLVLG

[5] = molecular target: panel of more than 300 wild-type and mutant kinases (313 kinase panel) (Homo sapiens, UniProt Q96GD4); conditions: kinase AurB; 1 μM compound
Chain of panel of more than 300 wild-type and mutant kinases (313 kinase panel) (Homo sapiens, UniProt Q96GD4) (Q96GD4 whole entry, change not shown): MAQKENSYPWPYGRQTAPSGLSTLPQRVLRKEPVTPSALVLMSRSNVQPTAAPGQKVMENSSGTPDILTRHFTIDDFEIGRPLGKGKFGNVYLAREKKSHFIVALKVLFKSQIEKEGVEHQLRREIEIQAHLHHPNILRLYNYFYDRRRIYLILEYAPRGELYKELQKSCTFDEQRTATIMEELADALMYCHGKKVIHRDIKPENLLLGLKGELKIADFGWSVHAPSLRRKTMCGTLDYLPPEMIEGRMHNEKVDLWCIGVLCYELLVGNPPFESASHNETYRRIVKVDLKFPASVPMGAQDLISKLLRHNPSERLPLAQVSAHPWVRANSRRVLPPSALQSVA

[6] = molecular target: panel of more than 300 wild-type and mutant kinases (313 kinase panel) (Homo sapiens, UniProt P28482); conditions: kinase Erk2; compound at 1 μM
[7] = molecular target: panel of more than 300 wild-type and mutant kinases (313 kinase panel) (Homo sapiens, UniProt P27361)
Chain of panel of more than 300 wild-type and mutant kinases (313 kinase panel) (Homo sapiens, UniProt P27361) (P27361 whole entry, change not shown): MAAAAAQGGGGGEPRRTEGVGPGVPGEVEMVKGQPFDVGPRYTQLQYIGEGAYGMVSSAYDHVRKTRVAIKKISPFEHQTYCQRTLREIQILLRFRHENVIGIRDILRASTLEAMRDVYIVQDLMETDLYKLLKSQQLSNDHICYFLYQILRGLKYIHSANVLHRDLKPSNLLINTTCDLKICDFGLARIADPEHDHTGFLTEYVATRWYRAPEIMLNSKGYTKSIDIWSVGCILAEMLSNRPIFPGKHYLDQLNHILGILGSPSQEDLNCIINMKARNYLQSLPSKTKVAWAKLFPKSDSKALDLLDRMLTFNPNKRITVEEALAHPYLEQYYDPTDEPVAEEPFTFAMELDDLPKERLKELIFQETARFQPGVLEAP

[8] = molecular target: T3, panel of more than 300 wild-type and mutant kinases (313 kinase panel) (Homo sapiens, UniProt Q8TF76); conditions: kinase Haspin; compound at 1 μM
T3 sequence (Q8TF76 1-798): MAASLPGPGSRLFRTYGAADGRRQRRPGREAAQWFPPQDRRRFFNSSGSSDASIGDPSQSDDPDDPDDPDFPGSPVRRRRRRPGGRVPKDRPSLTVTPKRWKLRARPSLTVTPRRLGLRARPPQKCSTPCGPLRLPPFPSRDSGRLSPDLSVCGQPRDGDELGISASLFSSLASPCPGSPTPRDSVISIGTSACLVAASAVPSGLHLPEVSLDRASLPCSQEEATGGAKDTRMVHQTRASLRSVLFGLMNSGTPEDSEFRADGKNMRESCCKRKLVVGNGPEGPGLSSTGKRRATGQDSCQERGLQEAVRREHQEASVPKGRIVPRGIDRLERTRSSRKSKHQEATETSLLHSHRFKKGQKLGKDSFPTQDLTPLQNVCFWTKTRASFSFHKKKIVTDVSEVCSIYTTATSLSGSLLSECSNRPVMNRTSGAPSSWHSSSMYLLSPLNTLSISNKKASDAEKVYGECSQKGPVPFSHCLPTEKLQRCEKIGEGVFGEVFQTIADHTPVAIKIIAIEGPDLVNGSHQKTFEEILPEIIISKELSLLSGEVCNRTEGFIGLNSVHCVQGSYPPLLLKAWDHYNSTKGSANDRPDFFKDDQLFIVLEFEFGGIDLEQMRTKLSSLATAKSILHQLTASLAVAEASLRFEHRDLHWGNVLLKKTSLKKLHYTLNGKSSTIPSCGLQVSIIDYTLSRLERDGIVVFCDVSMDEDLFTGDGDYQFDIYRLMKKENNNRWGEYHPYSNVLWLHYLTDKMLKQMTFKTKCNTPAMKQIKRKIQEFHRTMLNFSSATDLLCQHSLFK

[9] = molecular target: panel of more than 300 wild-type and mutant kinases (313 kinase panel) (Homo sapiens, UniProt Q9H4A3); conditions: kinase WNK1; compound at 1 μM
Chain of panel of more than 300 wild-type and mutant kinases (313 kinase panel) (Homo sapiens, UniProt Q9H4A3) (Q9H4A3 whole entry, change not shown): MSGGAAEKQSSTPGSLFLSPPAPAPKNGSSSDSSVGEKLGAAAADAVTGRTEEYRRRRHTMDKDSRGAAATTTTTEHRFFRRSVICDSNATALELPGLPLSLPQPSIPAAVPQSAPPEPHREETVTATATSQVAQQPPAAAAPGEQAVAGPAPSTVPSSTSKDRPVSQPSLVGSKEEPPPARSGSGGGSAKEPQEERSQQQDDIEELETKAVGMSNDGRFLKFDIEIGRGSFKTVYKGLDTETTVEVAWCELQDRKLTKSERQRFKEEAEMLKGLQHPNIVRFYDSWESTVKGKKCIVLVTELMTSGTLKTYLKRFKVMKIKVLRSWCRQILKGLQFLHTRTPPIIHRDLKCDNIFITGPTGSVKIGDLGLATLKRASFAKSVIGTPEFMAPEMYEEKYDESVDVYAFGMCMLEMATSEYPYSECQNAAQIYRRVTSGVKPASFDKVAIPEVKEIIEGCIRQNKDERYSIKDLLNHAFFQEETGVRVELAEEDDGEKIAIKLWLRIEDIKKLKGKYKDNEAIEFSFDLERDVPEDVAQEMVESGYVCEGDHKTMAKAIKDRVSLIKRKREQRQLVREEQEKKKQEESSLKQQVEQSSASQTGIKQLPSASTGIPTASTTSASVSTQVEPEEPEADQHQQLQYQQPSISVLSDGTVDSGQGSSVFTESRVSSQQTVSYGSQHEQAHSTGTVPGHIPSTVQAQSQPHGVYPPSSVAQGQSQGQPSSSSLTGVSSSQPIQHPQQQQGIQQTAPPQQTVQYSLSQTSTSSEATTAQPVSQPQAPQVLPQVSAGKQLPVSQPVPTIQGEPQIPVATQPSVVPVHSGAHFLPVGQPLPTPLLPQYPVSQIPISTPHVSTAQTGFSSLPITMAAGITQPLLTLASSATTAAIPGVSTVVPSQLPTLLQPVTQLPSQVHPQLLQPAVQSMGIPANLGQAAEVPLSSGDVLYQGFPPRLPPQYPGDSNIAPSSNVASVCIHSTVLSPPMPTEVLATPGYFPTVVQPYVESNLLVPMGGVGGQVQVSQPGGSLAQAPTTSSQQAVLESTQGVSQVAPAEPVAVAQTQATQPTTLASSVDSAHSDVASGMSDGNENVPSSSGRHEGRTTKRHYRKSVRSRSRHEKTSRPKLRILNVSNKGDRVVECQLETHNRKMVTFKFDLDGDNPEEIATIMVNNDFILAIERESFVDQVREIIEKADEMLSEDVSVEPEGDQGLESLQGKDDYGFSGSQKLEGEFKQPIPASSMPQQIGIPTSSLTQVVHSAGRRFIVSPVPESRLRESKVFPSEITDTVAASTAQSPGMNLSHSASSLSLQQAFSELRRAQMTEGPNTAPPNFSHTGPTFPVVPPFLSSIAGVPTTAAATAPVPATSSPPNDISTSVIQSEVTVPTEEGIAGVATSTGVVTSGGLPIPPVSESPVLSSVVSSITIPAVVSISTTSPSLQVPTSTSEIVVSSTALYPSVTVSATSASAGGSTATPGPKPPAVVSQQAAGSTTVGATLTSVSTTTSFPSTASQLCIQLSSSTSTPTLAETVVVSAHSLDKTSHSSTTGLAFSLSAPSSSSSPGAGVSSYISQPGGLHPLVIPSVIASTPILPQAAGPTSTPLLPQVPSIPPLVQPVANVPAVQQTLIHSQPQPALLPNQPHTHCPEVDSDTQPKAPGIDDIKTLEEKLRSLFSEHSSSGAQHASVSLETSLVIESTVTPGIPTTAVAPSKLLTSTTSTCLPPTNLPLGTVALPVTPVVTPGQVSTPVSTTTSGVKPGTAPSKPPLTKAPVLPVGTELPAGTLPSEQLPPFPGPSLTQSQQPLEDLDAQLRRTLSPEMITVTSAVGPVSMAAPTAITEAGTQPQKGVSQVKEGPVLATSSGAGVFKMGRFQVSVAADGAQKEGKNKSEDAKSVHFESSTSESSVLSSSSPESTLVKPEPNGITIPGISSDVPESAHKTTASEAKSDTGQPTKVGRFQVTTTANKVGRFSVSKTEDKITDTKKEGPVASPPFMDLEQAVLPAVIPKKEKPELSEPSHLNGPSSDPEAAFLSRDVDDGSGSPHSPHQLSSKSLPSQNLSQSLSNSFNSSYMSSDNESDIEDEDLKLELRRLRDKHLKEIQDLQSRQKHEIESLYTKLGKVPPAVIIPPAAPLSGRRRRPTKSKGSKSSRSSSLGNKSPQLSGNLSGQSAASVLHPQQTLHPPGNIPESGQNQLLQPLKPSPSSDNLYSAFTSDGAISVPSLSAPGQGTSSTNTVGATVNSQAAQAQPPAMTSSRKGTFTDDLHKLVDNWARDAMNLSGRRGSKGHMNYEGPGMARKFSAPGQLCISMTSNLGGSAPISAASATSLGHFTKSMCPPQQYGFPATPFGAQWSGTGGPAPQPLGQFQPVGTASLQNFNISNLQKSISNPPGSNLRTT

[10] = molecular target: panel of more than 300 wild-type and mutant kinases (313 kinase panel) (Homo sapiens, UniProt P06493); conditions: kinase CDC2/CycB1; 1 μM compound

Chain of panel of more than 300 wild-type and mutant kinases (313 kinase panel) (Homo sapiens, UniProt P22607, K650E) (P22607 23-806 K650E): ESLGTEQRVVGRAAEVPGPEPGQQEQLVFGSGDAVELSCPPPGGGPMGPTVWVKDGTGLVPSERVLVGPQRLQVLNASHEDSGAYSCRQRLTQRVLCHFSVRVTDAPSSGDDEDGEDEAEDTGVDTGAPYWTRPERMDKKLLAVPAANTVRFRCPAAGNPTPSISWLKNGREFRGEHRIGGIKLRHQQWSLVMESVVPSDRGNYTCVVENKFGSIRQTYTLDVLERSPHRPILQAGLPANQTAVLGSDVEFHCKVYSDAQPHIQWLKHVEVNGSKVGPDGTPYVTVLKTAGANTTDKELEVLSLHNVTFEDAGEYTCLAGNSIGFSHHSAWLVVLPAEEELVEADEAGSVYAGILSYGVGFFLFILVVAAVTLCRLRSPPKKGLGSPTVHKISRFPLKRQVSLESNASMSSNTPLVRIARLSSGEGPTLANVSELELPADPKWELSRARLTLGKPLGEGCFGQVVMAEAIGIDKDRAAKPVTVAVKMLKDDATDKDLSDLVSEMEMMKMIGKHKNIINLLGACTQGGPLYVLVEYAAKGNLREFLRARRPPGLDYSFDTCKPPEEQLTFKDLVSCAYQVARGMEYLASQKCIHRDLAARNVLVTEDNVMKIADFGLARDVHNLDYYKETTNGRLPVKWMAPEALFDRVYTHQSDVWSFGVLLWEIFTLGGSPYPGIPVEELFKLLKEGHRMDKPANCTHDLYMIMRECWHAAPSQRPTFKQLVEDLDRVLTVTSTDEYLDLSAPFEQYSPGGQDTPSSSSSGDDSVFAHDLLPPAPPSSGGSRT

Compound | %-inhibition of FGFR3(K650E) [1] | %-inhibition of MET(Y1235D) [2] | %-inhibition of NuaK2 [3] | %-inhibition of PHKG2 [4] | %-inhibition, AurB [5] | %-inhibition of Erk2 [6] | %-inhibition of Erk1 ([7]; kinase Erk1, compound at 1 μM) | %-inhibition of Haspin [8] | %-inhibition of WNK1 [9] | %-inhibition, CDC2/CycB1 [10] | %-inhibition of Erk1 ([7]; 1 µM)
CC(C)(C)c1nc(-c2cccc(NS(=O)(=O)c3c(F)cccc3F)c2F)c(-c2ccnc(N)n2)s1 [dabrafenib] | 5% | 25% | 4.53% | 2% | 39% | -8% | -1.62% | 9% | 1.14% | – | –
CCCS(=O)(=O)Nc1ccc(F)c(C(=O)c2c[nH]c3ncc(-c4ccc(Cl)cc4)cc23)c1F [vemurafenib] | 6.55% | 2.5% | 4.36% | -4.37% | 6% | -4.58% | 0.0533% | -3% | 10% | 10% | –
Cc1nc(Nc2ncc(C(=O)Nc3c(C)cccc3Cl)s2)cc(N2CCN(CCO)CC2)n1 [dasatinib] | – | – | 3% | – | – | – | – | -13% | – | 4.44% | –
C[C@@H](Oc1cc(-c2cnn(C3CCNCC3)c2)cnc1N)c1c(Cl)ccc(F)c1Cl [crizotinib] | 52% | – | 87% | 10% | – | -4.58% | -2% | 7% | -3% | 19% | –
Cc1ccc(C(=O)Nc2ccc(CN3CCN(C)CC3)c(C(F)(F)F)c2)cc1C#Cc1cnc2cccnn12 [ponatinib] | 101% | – | -13% | – | 46% | – | – | – | – | 33% | –
O=S(=O)(c1cccc2cnccc12)N1CCCNCC1 [fasudil] | -0.641% | -2.65% | 20% | 4% | 1% | -7% | -3% | 72% | 3% | 6.46% | –
COc1cc(Nc2c(C#N)cnc3cc(OCCCN4CCN(C)CC4)c(OC)cc23)c(Cl)cc1Cl [bosutinib] | – | 14% | 87% | – | – | – | – | – | – | -1.38% | 1.12%
CO[C@H]1C[C@@H]2CC[C@@H](C)[C@@](O)(O2)C(=O)C(=O)N2CCCC[C@H]2C(=O)O[C@H]([C@H](C)C[C@@H]2CC[C@@H](OCCO)[C@H](OC)C2)CC(=O)[C@H](C)/C=C(\C)[C@@H](O)[C@@H](OC)C(=O)[C@H](C)C[C@H](C)/C=C/C=C/C=C/1C [everolimus] | -4.55% | -5% | -0.726% | -8% | -1.39% | -7.44% | -0.906% | -0.358% | -5% | -19% | –
Cc1ccc(Nc2nccc(N(C)c3ccc4c(C)n(C)nc4c3)n2)cc1S(N)(=O)=O [pazopanib] | – | – | 2.81% | 1% | 45% | -0.636% | -3.79% | -0.746% | -3.67% | 3% | –
CNC(=O)c1cc(Oc2ccc(NC(=O)Nc3ccc(Cl)c(C(F)(F)F)c3)c(F)c2)ccn1 [regorafenib] | 99% | -1.72% | -24% | -8% | 20% | -5% | -2% | -8% | -4% | 0.529% | –
CC(=O)Nc1cccc(-n2c(=O)n(C3CC3)c(=O)c3c(Nc4ccc(I)cc4F)n(C)c(=O)c(C)c32)c1 [trametinib] | -1.07% | -1.5% | 9% | 2.81% | -4% | -5% | -1.14% | 5% | -1.42% | 8% | –
CCN(CC)CCNC(=O)c1c(C)[nH]c(/C=C2\C(=O)Nc3ccc(F)cc32)c1C [sunitinib] | 96% | – | – | – | – | – | – | – | – | – | –
COc1cc2c(Nc3ccc(Br)cc3F)ncnc2cc1OCC1CCN(C)CC1 [vandetanib] | – | – | -14% | 19% | 23% | -4% | -1.55% | -3.76% | -2.36% | -0.952% | –
COc1cc2nccc(Oc3ccc(NC(=O)C4(C(=O)Nc5ccc(F)cc5)CC4)cc3)c2cc1OC [cabozantinib] | 26% | – | 1.63% | -0.305% | 89% | -8% | -1.33% | 8% | -1.85% | -17% | –

— paper PMC3961306, “Comparison of the Cancer Gene Targeting and Biochemical Selectivities of All Targeted Kinase Inhibitors Approved for Clinical Use” (PLoS ONE, 2014)
